ChEMBL document CHEMBL3885861, “Open TG-GATES”

Organism: Rattus norvegicus
Experiment: Open TG-GATES - Regimen: Daily Repeat
Assay type: toxicity, organism-based, Sprague-Dawley
Design: regimen Daily Repeat, gender Male, age 6 weeks
Conditions: in vivo, po, route gavage; for APTT / Bas / Eos / Fbg / Hb / Ht / Lym / MCH / MCHC / MCV / Mono / Neu / PT / Plat / RBC / Ret / WBC: tissue Blood; for KIDNEY_L / KIDNEY_R / KIDNEY_TOTAL: tissue Kidney; for LIVER: tissue Liver; for A/G / ALP / ALT / AST / BUN / CRE / Ca / Cl / DBIL / GLC / IP / K / LDH / Na / PL / RALB / TBIL / TC / TG / TP / gamma-GTP: tissue Plasma
[1] = 0 mg/kg, 72 h, dose level Control, time 3 day
[2] = 0 mg/kg, […], dose level Control, time 7 day
[3] = 0 mg/kg, […], dose level Control, time 14 day
[4] = 0 mg/kg, […], dose level Control, time 28 day
[5] = 3 mg/kg, 72 h, dose level Low, time 3 day
[6] = 3 mg/kg, […], dose level Low, time 7 day
[7] = 3 mg/kg, […], dose level Low, time 14 day
[8] = 3 mg/kg, […], dose level Low, time 28 day

## CCN(CC)N=O [N-NITROSODIETHYLAMINE]
[1]
  TERMINAL_BW: 240.5 g
  APTT: 18.3 s
  Bas: 0.8%
  Eos: 1.2%
  Fbg: 218.2 mg/dL
  Hb: 13.8 g/dL
  Ht: 39.7%
  Lym: 77.6%
  MCH: 21.7 pg
  MCHC: 34.8%
  MCV: 62.3 fL
  Mono: 2.6%
  Neu: 17.6%
  PT: 12 s
  Plat: 135 x10_4/uL
  RBC: 638.8 x10_4/ul
  Ret: 5.8%
  WBC: 87.8 x10_2/uL
  KIDNEY_L: 1 g
  KIDNEY_R: 1 g
  KIDNEY_TOTAL: 2 g
  LIVER: 10.5 g
  A/G: 1.6
  ALP: 962 IU/L
  ALT: 35.8 IU/L
  AST: 67 IU/L
  BUN: 16.2 mg/dL
  CRE: 0.4 mg/dL
  Ca: 10.8 mg/dL
  Cl: 102.2 meq/L
  DBIL: 0.09 mg/dL
  GLC: 200.6 mg/dL
  IP: 8 mg/dL
  K: 4 meq/L
  LDH: 211.2 IU/L
  Na: 140.2 meq/L
  PL: 153 mg/dL
  RALB: 3.4 g/dL
  TBIL: 0.1 mg/dL
  TC: 82.6 mg/dL
  TG: 79.2 mg/dL
  TP: 5.6 g/dL
  gamma-GTP: 1 IU/L
[2]
  TERMINAL_BW: 275.8 g
  APTT: 20.6 s
  Bas: 0%
  Eos: 1%
  Fbg: 217.4 mg/dL
  Hb: 13.5 g/dL
  Ht: 38.7%
  Lym: 79.6%
  MCH: 21.3 pg
  MCHC: 34.9%
  MCV: 61 fL
  Mono: 2.4%
  Neu: 16%
  PT: 11.8 s
  Plat: 142.9 x10_4/uL
  RBC: 634 x10_4/ul
  Ret: 5.8%
  WBC: 109.2 x10_2/uL
  KIDNEY_L: 1.2 g
  KIDNEY_R: 1.1 g
  KIDNEY_TOTAL: 2.3 g
  LIVER: 12.4 g
  A/G: 1.5
  ALP: 863.2 IU/L
  ALT: 32.2 IU/L
  AST: 66.2 IU/L
  BUN: 15 mg/dL
  CRE: 0.4 mg/dL
  Ca: 10.4 mg/dL
  Cl: 103.2 meq/L
  DBIL: 0.1 mg/dL
  GLC: 194.8 mg/dL
  IP: 8.5 mg/dL
  K: 4.1 meq/L
  LDH: 190 IU/L
  Na: 141 meq/L
  PL: 153 mg/dL
  RALB: 3.3 g/dL
  TBIL: 0.2 mg/dL
  TC: 83.2 mg/dL
  TG: 102.8 mg/dL
  TP: 5.5 g/dL
  gamma-GTP: 1 IU/L
[3]
  TERMINAL_BW: 325.9 g
  APTT: 21.7 s
  Bas: 1%
  Eos: 0.8%
  Fbg: 216.6 mg/dL
  Hb: 14.7 g/dL
  Ht: 41.9%
  Lym: 82%
  MCH: 21 pg
  MCHC: 35%
  MCV: 60.1 fL
  Mono: 1.8%
  Neu: 13.8%
  PT: 12 s
  Plat: 124.2 x10_4/uL
  RBC: 697 x10_4/ul
  Ret: 4.3%
  WBC: 94.2 x10_2/uL
  KIDNEY_L: 1.3 g
  KIDNEY_R: 1.3 g
  KIDNEY_TOTAL: 2.6 g
  LIVER: 13.5 g
  A/G: 1.5
  ALP: 688.8 IU/L
  ALT: 31 IU/L
  AST: 64.2 IU/L
  BUN: 15 mg/dL
  CRE: 0.5 mg/dL
  Ca: 10.6 mg/dL
  Cl: 101.6 meq/L
  DBIL: 0.086 mg/dL
  GLC: 205 mg/dL
  IP: 8 mg/dL
  K: 4 meq/L
  LDH: 198.4 IU/L
  Na: 141.6 meq/L
  PL: 144.4 mg/dL
  RALB: 3.4 g/dL
  TBIL: 0.1 mg/dL
  TC: 72.8 mg/dL
  TG: 93.6 mg/dL
  TP: 5.8 g/dL
  gamma-GTP: 1 IU/L
[4]
  TERMINAL_BW: 396.4 g
  APTT: 21.9 s
  Bas: 0.8%
  Eos: 1.4%
  Fbg: 225 mg/dL
  Hb: 15.5 g/dL
  Ht: 42.3%
  Lym: 80.8%
  MCH: 20.4 pg
  MCHC: 36.6%
  MCV: 55.8 fL
  Mono: 2%
  Neu: 14.8%
  PT: 11.6 s
  Plat: 108.6 x10_4/uL
  RBC: 758.6 x10_4/ul
  Ret: 2.6%
  WBC: 81 x10_2/uL
  KIDNEY_L: 1.3 g
  KIDNEY_R: 1.3 g
  KIDNEY_TOTAL: 2.7 g
  LIVER: 14.9 g
  A/G: 1.3
  ALP: 606.8 IU/L
  ALT: 33 IU/L
  AST: 63.6 IU/L
  BUN: 17.4 mg/dL
  CRE: 0.5 mg/dL
  Ca: 10.3 mg/dL
  Cl: 103 meq/L
  DBIL: 0.092 mg/dL
  GLC: 208.4 mg/dL
  IP: 6.9 mg/dL
  K: 3.7 meq/L
  LDH: 203 IU/L
  Na: 141 meq/L
  PL: 135.2 mg/dL
  RALB: 3.5 g/dL
  TBIL: 0.2 mg/dL
  TC: 72.4 mg/dL
  TG: 104 mg/dL
  TP: 6.1 g/dL
  gamma-GTP: 1.2 IU/L
[5]
  TERMINAL_BW: 235.3 g
  APTT: 18.7 s
  Bas: 0.2%
  Eos: 1%
  Fbg: 224.6 mg/dL
  Hb: 13.3 g/dL
  Ht: 38.4%
  Lym: 82%
  MCH: 21.3 pg
  MCHC: 34.7%
  MCV: 61.5 fL
  Mono: 2%
  Neu: 14.2%
  PT: 11.7 s
  Plat: 134.1 x10_4/uL
  RBC: 624.4 x10_4/ul
  Ret: 5.5%
  WBC: 68.1 x10_2/uL
  KIDNEY_L: 1.1 g
  KIDNEY_R: 1.1 g
  KIDNEY_TOTAL: 2.1 g
  LIVER: 10.5 g
  A/G: 1.5
  ALP: 1018.6 IU/L
  ALT: 33 IU/L
  AST: 65.8 IU/L
  BUN: 14.2 mg/dL
  CRE: 0.4 mg/dL
  Ca: 10.8 mg/dL
  Cl: 102.6 meq/L
  DBIL: 0.094 mg/dL
  GLC: 204.6 mg/dL
  IP: 8.5 mg/dL
  K: 4.3 meq/L
  LDH: 217.4 IU/L
  Na: 140.6 meq/L
  PL: 142.4 mg/dL
  RALB: 3.3 g/dL
  TBIL: 0.1 mg/dL
  TC: 72.4 mg/dL
  TG: 114.4 mg/dL
  TP: 5.5 g/dL
  gamma-GTP: 1.4 IU/L
[6]
  TERMINAL_BW: 272 g
  APTT: 20.6 s
  Bas: 0%
  Eos: 1%
  Fbg: 219.2 mg/dL
  Hb: 14 g/dL
  Ht: 40%
  Lym: 78.2%
  MCH: 21.1 pg
  MCHC: 34.8%
  MCV: 60.7 fL
  Mono: 3%
  Neu: 17.2%
  PT: 11.9 s
  Plat: 142 x10_4/uL
  RBC: 659.8 x10_4/ul
  Ret: 4.8%
  WBC: 96.9 x10_2/uL
  KIDNEY_L: 1.2 g
  KIDNEY_R: 1.2 g
  KIDNEY_TOTAL: 2.3 g
  LIVER: 12 g
  A/G: 1.6
  ALP: 847.6 IU/L
  ALT: 31.2 IU/L
  AST: 67.2 IU/L
  BUN: 15.4 mg/dL
  CRE: 0.4 mg/dL
  Ca: 10.6 mg/dL
  Cl: 103.4 meq/L
  DBIL: 0.1 mg/dL
  GLC: 191.6 mg/dL
  IP: 8.2 mg/dL
  K: 4.4 meq/L
  LDH: 214.2 IU/L
  Na: 140.4 meq/L
  PL: 131.6 mg/dL
  RALB: 3.4 g/dL
  TBIL: 0.2 mg/dL
  TC: 66.8 mg/dL
  TG: 122.2 mg/dL
  TP: 5.5 g/dL
  gamma-GTP: 1 IU/L
[7]
  TERMINAL_BW: 323.6 g
  APTT: 19.8 s
  Bas: 0.8%
  Eos: 1%
  Fbg: 213.2 mg/dL
  Hb: 14.4 g/dL
  Ht: 41.3%
  Lym: 78.4%
  MCH: 20.8 pg
  MCHC: 34.9%
  MCV: 59.5 fL
  Mono: 2%
  Neu: 17.4%
  PT: 12 s
  Plat: 139.4 x10_4/uL
  RBC: 695.4 x10_4/ul
  Ret: 4.1%
  WBC: 103.2 x10_2/uL
  KIDNEY_L: 1.3 g
  KIDNEY_R: 1.2 g
  KIDNEY_TOTAL: 2.5 g
  LIVER: 13 g
  A/G: 1.4
  ALP: 752 IU/L
  ALT: 36 IU/L
  AST: 68.6 IU/L
  BUN: 15.2 mg/dL
  CRE: 0.4 mg/dL
  Ca: 10.6 mg/dL
  Cl: 102 meq/L
  DBIL: 0.096 mg/dL
  GLC: 192.2 mg/dL
  IP: 7.7 mg/dL
  K: 3.9 meq/L
  LDH: 190.2 IU/L
  Na: 141.2 meq/L
  PL: 129.4 mg/dL
  RALB: 3.4 g/dL
  TBIL: 0.2 mg/dL
  TC: 68.8 mg/dL
  TG: 79.4 mg/dL
  TP: 5.8 g/dL
[8]
  TERMINAL_BW: 391.5 g
  APTT: 19.1 s
  Bas: 0.6%
  Eos: 1.2%
  Fbg: 215.6 mg/dL
  Hb: 15.4 g/dL
  Ht: 42.5%
  Lym: 80.4%
  MCH: 20.3 pg
  MCHC: 36.3%
  MCV: 55.9 fL
  Mono: 2.4%
  Neu: 15%
  PT: 11.7 s
  Plat: 124.2 x10_4/uL
  RBC: 759.6 x10_4/ul
  Ret: 2.9%
  WBC: 104.7 x10_2/uL
  KIDNEY_L: 1.3 g
  KIDNEY_R: 1.3 g
  KIDNEY_TOTAL: 2.7 g
  LIVER: 14 g
